Patent US20250375129A1, “USE OF BLINK REFLEX FOR ATTENTION-DEFICIT/HYPERACTIVITY DISORDER (ADHD) RESPONSE MONITORING AND/OR TREATMENT SELECTION” (Blinktbi, Inc., priority 2022, published 2025)
Entries after “also recorded” stand apart in the source; their conditions may differ.

Tested on: blink reflex
Experiment: Blink reflex response parameters in ADHD patients before and 1 hour after their prescribed ADHD medication versus non-ADHD controls (pilot study)
Type: in vivo, humans
Conditions: for Max closing velocity, effect of medication type (in words): compared to controls and participants before taking their ADHD medications; for Delta 30, Estimate of Fixed Effects / Excursions, Estimate of Fixed Effects / Initial Velocity, Estimate of Fixed Effects / Max Closing Velocity, Estimate of Fixed Effects / Differential Latency, Estimate of Fixed Effects: Model 3 mixed model by medication type; for Delta 30, Estimate of Fixed Effects / Excursions, Estimate of Fixed Effects / Initial Velocity, Estimate of Fixed Effects / Max Closing Velocity, Estimate of Fixed Effects / Differential Latency, Estimate of Fixed Effects / Max Closing Velocity, Estimate of Fixed Effects, further analysis: relative to Med_type = 4 (Control); for Differential Latency, Estimate of Fixed Effects: AMP n=20, ATX n=2, MPH n=2; for Max Closing Velocity, Estimate of Fixed Effects, further analysis: Model 3 with confounders hours of sleep, urine specific gravity and age

Row | SMILES | Delta 30, effect of medication type (in words) (Model 3) | Differential Latency, effect of medication type (in words) (Model 3) | Max closing velocity, effect of medication type (in words) (Model 3) | Delta 30, Estimate of Fixed Effects | Excursions, Estimate of Fixed Effects | Initial Velocity, Estimate of Fixed Effects | Max Closing Velocity, Estimate of Fixed Effects | Differential Latency, Estimate of Fixed Effects | Max Closing Velocity, Estimate of Fixed Effects, further analysis | Excursions, effect of medication type (in words) (Model 3) | Initial Velocity, effect of medication type (in words) (Model 3) | Blink reflex parameters predictive for treatment type (in words) (Model 3 conclusion, ATX=2, MPH=2, AMP=20 participants)
1 | CNCC[C@@H](Oc1ccccc1C)c1ccccc1 [ATX] | statistically significant | statistically significant | associated with an increase | −4.184 | 13.866 | .532 | 2.659 | −2.456 | 2.277 | – | – | –
2 | COC(=O)C(c1ccccc1)C1CCCCN1 (stereo not drawn) [MPH, methylphenidate] | statistically significant | statistically significant | associated with an increase | −1.756 | 14.707 | .578 | 1.378 | −0.980 | 1.265 | statistically significant | statistically significant; also recorded: slight increase | particularly predictive
